Measured values: PMC11584170 (ACS chemical biology, 2023)

How the values were obtained:
ERRγ = target: T1, ERRγ (Homo sapiens, UniProt P62508); assay: full-length ERR cell-based cotransfection/reporter assay in HEK293 cells; conditions: full-length ERR cotransfection
T1 sequence (P62508 1-458): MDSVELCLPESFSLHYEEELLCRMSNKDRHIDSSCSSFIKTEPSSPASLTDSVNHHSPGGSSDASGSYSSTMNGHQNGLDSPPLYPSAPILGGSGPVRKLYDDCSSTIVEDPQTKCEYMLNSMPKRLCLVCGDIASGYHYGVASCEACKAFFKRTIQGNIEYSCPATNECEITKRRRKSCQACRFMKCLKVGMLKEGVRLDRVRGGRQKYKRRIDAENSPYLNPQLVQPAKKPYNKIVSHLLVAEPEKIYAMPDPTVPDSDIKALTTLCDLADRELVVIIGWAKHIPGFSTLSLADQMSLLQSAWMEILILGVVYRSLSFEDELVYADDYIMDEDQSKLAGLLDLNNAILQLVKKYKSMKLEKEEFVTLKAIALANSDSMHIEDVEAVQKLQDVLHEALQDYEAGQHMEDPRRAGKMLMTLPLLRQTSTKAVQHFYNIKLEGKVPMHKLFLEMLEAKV

ERRα = target: T2, ERRα (Homo sapiens, UniProt P11474); assay: as above
T2 sequence (P11474 1-423): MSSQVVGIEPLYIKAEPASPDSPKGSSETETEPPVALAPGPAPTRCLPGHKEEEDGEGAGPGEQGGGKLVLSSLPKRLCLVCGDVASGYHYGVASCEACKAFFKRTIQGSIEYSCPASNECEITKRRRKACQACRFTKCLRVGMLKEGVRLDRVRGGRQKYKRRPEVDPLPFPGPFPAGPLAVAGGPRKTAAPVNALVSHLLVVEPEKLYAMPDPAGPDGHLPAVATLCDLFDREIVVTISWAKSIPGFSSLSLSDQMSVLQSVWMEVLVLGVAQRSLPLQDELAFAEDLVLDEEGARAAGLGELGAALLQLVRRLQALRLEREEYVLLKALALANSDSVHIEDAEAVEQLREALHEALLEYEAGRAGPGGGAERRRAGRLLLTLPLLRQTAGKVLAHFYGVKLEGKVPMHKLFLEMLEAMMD

ERRβ = target: T3, ERRβ (Homo sapiens, UniProt O95718); assay: as above; conditions: read-out: ERRβ EC50
T3 sequence (O95718 1-433): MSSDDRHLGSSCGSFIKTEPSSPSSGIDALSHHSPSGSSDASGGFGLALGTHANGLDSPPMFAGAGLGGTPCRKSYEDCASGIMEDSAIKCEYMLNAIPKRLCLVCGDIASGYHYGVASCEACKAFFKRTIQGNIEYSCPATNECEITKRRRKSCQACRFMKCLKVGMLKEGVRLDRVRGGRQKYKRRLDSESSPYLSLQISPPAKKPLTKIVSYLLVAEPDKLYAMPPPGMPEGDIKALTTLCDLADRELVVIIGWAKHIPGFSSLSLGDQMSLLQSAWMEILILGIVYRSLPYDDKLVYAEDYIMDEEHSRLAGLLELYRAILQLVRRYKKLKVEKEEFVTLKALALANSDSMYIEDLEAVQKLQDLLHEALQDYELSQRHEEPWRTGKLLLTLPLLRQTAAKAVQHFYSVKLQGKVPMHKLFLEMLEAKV

Gal4-ERR LBD = Gal4-ERR LBD chimeric cotransfection assay; type: cell-based
ERRγ LBD = target: T4, ERRγ LBD (Homo sapiens, UniProt P62508); assay: differential scanning fluorimetry; conditions: direct binding
T4 sequence (P62508 233-457 limits assumed): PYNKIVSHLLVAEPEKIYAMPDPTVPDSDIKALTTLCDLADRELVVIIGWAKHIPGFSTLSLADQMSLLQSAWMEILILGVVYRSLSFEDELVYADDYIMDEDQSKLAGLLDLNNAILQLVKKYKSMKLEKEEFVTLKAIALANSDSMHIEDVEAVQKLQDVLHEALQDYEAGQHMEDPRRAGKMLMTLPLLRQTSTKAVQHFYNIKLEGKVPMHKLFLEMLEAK

C2C12 cells [1] = assay: ERR target gene; type: cell-based, mouse; conditions: C2C12, 24 h dose-response
C2C12 cells [2] = assay: MitoTracker Red staining of C2C12 cells; type: cell-based, mouse; conditions: proliferating C2C12, 10 μM, 24 h
[3] = tolerability in mice, 10 days dosing; type: in vivo
C57BL/6J mice = assay: chronic treatment, skeletal muscle histology and protein/gene expression; type: in vivo
C57BL6/J mice = assay: exercise until exhaustion on rodent treadmill, WT mice; type: in vivo; conditions: sedentary mice, 7 days b.i.d. i.p. 50 mg/kg, run to exhaustion
mice [4] = assay: grip strength test; type: in vivo; conditions: sedentary mice, 50 mg/kg, 2 weeks
mice [5] = assay: circadian locomotor activity; type: in vivo; conditions: drug treatment
C57BL/6J male mice = assay: acute single dose, Ddit4 and Slc25a25 expression in skeletal muscle; type: in vivo
C2C12 cells [6] = assay: Ddit4 gene expression in C2C12 myoblast cell line; type: cell-based, mouse; conditions: C2C12, 10 μM, 1 or 3 h
primary mouse myocytes = assay: Ddit4 and Slc25a25 expression in primary myocytes; type: cell-based
[7] = system: mERRα fl/fl and mERRα−/− mice; assay: exercise endurance in muscle-specific ERRα KO mice; type: in vivo
[8] = model of heart failure ref 38; cited from earlier work
[9] = 50 mg/kg b.i.d., gastrocnemius muscle
[10] = 14 days b.i.d., i.p, 50 mg/kg, exercise until exhaustion
[11] = quadricep, not induced in mERRα−/−

CC/C(=C(\c1ccc(O)cc1)c1ccc(OCCN(C)C)cc1)c1ccccc1 [4-hydroXytamoXifen]
inhibition of ERRγ constitutive activity (ERRγ): ~75%

CC(C)c1ccc(/C=N/NC(=O)c2ccc(O)cc2)cc1 [GSK4716]
ERRα agonist activity (ERRα; ERR cotransfection assay): very weak agonist activity | EC50 (ERRα; read-out: ERRα EC50, full-length ERR, HEK293): > 5 µM | EC50 (ERRβ): > 5 µM

O=C(N/N=C/c1ccc2ccccc2c1)c1ccc(O)cc1 [SLU-PP-332, (E)-4-Hydroxy-N′-(naphthalen-2-ylmethylene)benzohydrazide]
activity at ERRs (Gal4-ERR LBD): displayed activity at all ERRs | thermal stability of purified ERRγ LBD (ERRγ LBD): dose-dependently increased the thermal stability | expression of Pdk4 (C2C12 cells [1]): clear increase | mitochondrial biogenesis (MitoTracker Red) (C2C12 cells [2]): substantially induced | complete blood count and electrolyte levels ([3]; 50 mg/kg b.i.d., i.p., 10 days): normal | overt toxicity ([3]; 50 mg/kg b.i.d., i.p., 10 days): no overt toxicity | serum creatine kinase ([3]; skeletal muscle toxicity marker): no significant alterations | oxidative muscle phenotype (SDH staining) (C57BL/6J mice; 50 mg/kg b.i.d. i.p., 15 days, quadricep): greater SDH staining | myofiber diameter (laminin staining) (C57BL/6J mice; 50 mg/kg b.i.d., 15 days): smaller in diameter | complex I (NDUFB8) and complex V (ATP5A) expression (C57BL/6J mice; [9]): increase | cytochrome c protein expression (C57BL/6J mice; [9]): increase | Myosin IIA protein (western blot) (C57BL/6J mice; quadriceps): increased expression | expression of Myh6 (C57BL/6J mice; quadriceps): increase | oxidative type IIa muscle fibers (C57BL/6J mice; quadriceps, 50 mg/kg b.i.d.): increased | mitochondria content (electron micrographs of quadriceps) (C57BL/6J mice; vs vehicle-treated): increase | increase in running distance vs vehicle (C57BL6/J mice): ~45% | increase in running time vs vehicle (C57BL6/J mice): ~70% | grip strength (mice [4]): increase | circadian locomotor activity (mice [5]): no alterations | DDIT4 protein expression level (C57BL/6J male mice; quadricep muscle, 3 h post 50 mg/kg i.p.): 3.5 × | increase in Ddit4 expression (C57BL/6J male mice; sedentary mice, single dose 50 mg/kg i.p., 1 h): ~3 fold | increase in Ddit4 expression, drug plus exercise (C57BL/6J male mice; single dose 50 mg/kg i.p. and treadmill run, 1 h): ~11 fold | increase in Slc25a25 expression (C57BL/6J male mice; single dose 50 mg/kg i.p., 1 h): 11 fold | Ddit4 gene expression (C2C12 cells [6]): induced | effect on Ddit4 expression in ERRα or ERRα/γ null myocytes (primary mouse myocytes; 1 μM, 2 h): lost | effect on Ddit4 expression in ERRγ null myocytes (primary mouse myocytes; 1 μM, 2 h): retained | Ddit4 expression, 2 h (primary mouse myocytes; primary mouse myocytes, 1 μM, 2 h): induced | Ddit4 induction, 24 h (primary mouse myocytes; primary mouse myocytes, 1 μM, 24 h): not observed | expression of Slc25a25 (primary mouse myocytes; primary myocytes, 1 μM, 2 h): induced | ERRα dependence of Slc25a25 responsiveness (primary mouse myocytes; primary myocytes, WT vs KO): completely ERRα-dependent | exercise endurance, mERRα fl/fl mice [7, 10]: significantly enhanced exercise endurance | exercise endurance, mERRα−/− mice [7, 10]: equivalent to vehicle-treated | upregulation of Ddit4 in quadriceps ([7]; mERRα fl/fl vs mERRα−/− mice): observed only in mERRα^fl/fl | Alas2 expression, mERRα fl/fl mice [7, 11]: significantly induced | Per1 expression, mERRα fl/fl mice [7, 11]: significantly induced | improving heart function [8]: very effective
